Experimental data as given in patent US9487555B2, “Prodrug of an ice inhibitor” (VERTEX PHARMACEUTICALS INCORPORATED, priority 2000, dated 2016).

Experiment: Oral pharmacokinetic studies in rats (quantitation of ICE inhibitor in rat plasma by HPLC/MS/MS)
Format: in vivo, Male Sprague-Dawley rats
Conditions: for AUC: male Sprague-Dawley rats, oral 50 mg/kg in 100% propylene glycol, plasma, noncompartmental; for Bioavailability (in words): amount of ICE inhibitor in rat plasma after oral administration, comparison in words
Procedure: Applicants studied a number of prodrug ICE inhibitors, including examples listed in the aforementioned WO 99/47545. Bioavailability was determined by quantitating the amount of ICE inhibitor in rat plasma after oral administration, as described below.
Male Sprague-Dawley rats (Harlan, Indianapolis, Ind., 300-350 g) were anesthetized by an intramuscular injection of ketamine/rompun mixture. A PE-50 cannula was inserted in the right carotid artery for arterial blood sampling. The rats were allowed to recover from surgery overnight (16 hours) prior to being used in the study. Test compounds were administered orally at 50 mg/kg 100% propylene glycol (PG) at a dose volume of 10 mL/kg. Blood samples (˜0.30 mL) were removed at 0.25, 0.50, 1.0, 1.5, 2, 3, 4, 6, and 8 hours post-dose, plasma separated by centrifugation and stored at −80° C. pending analysis. Quantification of the plasma samples was conducted using a gradient HPLC/MS/MS similar to the one detailed below: […]
HPLC/MS/MS Method for the Quantitation of ICE Inhibitors in Rat Plasma
1. 100 μl of plasma are aliquotted into Ependorf centrifuge vials.
2. An equal volume of acetonitrile is added to the plasma to precipitate plasma proteins.
3. Samples are vortexed for 2 minutes, and centrifuged at 14,000 rpms for 3 minutes.
4. 100 μl of the supernatant is loaded into 12 mm HPLC liquid sampler vials.
5. A 20 μl addition of […] standard is added to the 100 μl aliquot to monitor variation in instrumental response.
6. 10 μl of sample is injected for analysis via the mass spectrometer.
HPLC Instrumental Parameters
• HPLC: Hewlett Packard HP1100 Binary Solvent Delivery System. HPLC Gradient Conditions • A=H2O 0.2% Formic Acid • B=Acetonitrile 0.2% Formic Acid Mobile Phase
• HPLC Analytical Column: Keystone Phenyl-1 Hypersil 2.0×100 mm, 5μ 120 Å pore pore size, P/N# 105-36-2. • Injection Volume: 10 μl • Flow Rate: 0.20 mL/min. Mass Spectrometry Instrumental Parameters • Instrument: Micromass Quattro Ultima, Tandem Mass Spectrometer • Ionization Technique: Orthogonal spray (ESI) • Polarity: Positive • Dwell Time: 300 msec • Pause Time: 5 msec • Scan time: 0.9 sec • Scan Mode: MRM (Multiple Reaction Monitoring) • Ions/Transitions: For compound I-A m/z509.1-243.1 • For compound II m/z481.1-215.1 Pharmacokinetic Parameters
Pharmacokinetic analysis of these plasma concentration data was conducted using noncompartmental methods. The area under the curve (AUC(0-t)) was estimated from time zero to the last measured time point using the linear trapezoidal rule. The rate of elimination (ke) was estimated by log-linear regression from the terminal phase of the plasma concentration-time curves. Area under the tail of the curve was estimated as the ratio of the last measured concentration to ke. The area under the curve from time zero to infinity (AUC(0-∞)) was obtained by addition of the area under the tail to AUC(0-t). Elimination half-life was estimated as 0.693/ke. The observed values for the peak plasma concentration (Cmax) were recorded.

Compound	AUC [μgXh/mL]	Bioavailability (in words)
CCO[C@@H]1OC(=O)C[C@@H]1NC(=O)[C@@H]1CCCN1C(=O)[C@H](C)NC(=O)c1ccc(N)c(Cl)c1 [Compound A, reference compound]	2.18	–
CCOC1OC(=O)C[C@@H]1NC(=O)[C@@H]1CCCN1C(=O)[C@@H](NC(=O)c1nccc2ccccc12)C(C)(C)C (some centres unmarked) [Compound B, reference compound]	1.35	–
CCO[C@@H]1OC(=O)C[C@@H]1NC(=O)[C@@H]1CCCN1C(=O)[C@@H](NC(=O)c1ccc(N)c(Cl)c1)C(C)(C)C [Compound I]	11.7	unexpectedly improved bioavailability
CC(C)(C)C(NC(=O)c1ccc(N)c(Cl)c1)C(=O)N1CCCC1C(=O)NC(C=O)CC(=O)O (centres unmarked) [II]	–	poor bioavailability
